Experiments:
Type in all cases: cell-based
[1] = test system: mCherry-GAL9 expressing HEK293 cells; assay: GAL9 recruitment assay, HEK293; conditions: calculated mean from >3 independent exp.
Description: (§1) Experiments assessing GAL9 localization as an indicator for endosomal remodeling were performed as previously described[15] using 8× stablemCherry-GAL9 expressing cell lines, SHSY5Y, U2OS, 16HBE, NCI-H358, HuH7, HepG2, HEK293, and HeLa. For mCherry-GAL9 recruitment, 3,000 or 6,500 cells/well (depending upon cell line) were seeded into 384-well CellCarrier Ultra plates 24 h prior to treatment (PerkinElmer, catalog no. 6007558). An Echo 655T acoustic dispenser (Labcyte) was used for EEE dose-response preparation by transferring to the cell plate. At assay endpoints, cells were PBS washed, 4% paraformaldehyde fixed at room temperature […] (VWR, catalog no. 9713.1000), and nuclei stained with PBS +1 μg/mL Hoechst 33342 (Thermo Fisher Scientific, catalog no. H21492).
(§2) Imaging was performed using a spinning-disk confocal microscope (Yokogawa: CV8000) with a ×20w objective (numerical aperture 1.0). Cells and mCherry-GAL9 structure identification and quantification were done using Columbus image-analysis software (PerkinElmer version 2.9.0). Data processing was done using Spotfire (Tibco version 11.4) and Prism (GraphPad version 9.1.0). Image panels were assembled using the FigureJ plugin for FIJI.[43] All mCherry-GAL9 experiments were performed three times (N = 3) with duplicated wells per treatment (n = 2).

[2] = test system: mCherry-GAL9 expressing U2OS cells; assay: GAL9 recruitment assay, U2OS; conditions: calculated mean from >3 independent exp.
Description: as §1, §2

[3] = test system: mCherry-GAL9 expressing SHSY5Y cells; assay: GAL9 recruitment assay, SHSY5Y; conditions: calculated mean from >3 independent exp.
Description: as §1, §2

[4] = test system: mCherry-GAL9 expressing HeLa cells; assay: GAL9 recruitment assay, HeLa; conditions: calculated mean from >3 independent exp.
Description: as §1, §2

[5] = test system: mCherry-GAL9 expressing NCI-H358 cells; assay: GAL9 recruitment assay, NCI-H358; conditions: calculated mean from >3 independent exp.
Description: as §1, §2

[6] = test system: mCherry-GAL9 expressing 16HBE cells; assay: GAL9 recruitment assay, 16HBE; conditions: calculated mean from >3 independent exp.
Description: as §1, §2

[7] = test system: HeLa_Luc705 cells (pLuc/705 splice-switching reporter); assay: Functional 705-SSO delivery, luciferase splice-switching assay; conditions: HeLa-Luc705 + 2 µM SSO, mean from >3 independent experiments
How it was run: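 Splice correction was measured as firefly luciferase luminescence in Triton X-100 lysates taken 24 h after enhancer treatment. Before treatment, the 10,000 cells/well had spent 24 h with 1–2 μM 705-SSO (2′-OMe, phosphorothioate). For comparison, 100–200 nM SSO was lipofected with LF2000.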

[8] = test system: mCherry-GAL9 expressing HepG2 cells; assay: GAL9 recruitment assay, HepG2; conditions: calculated mean from >3 independent exp.
Description: as §1, §2

[9] = test system: mCherry-GAL9 expressing HuH7 cells; assay: GAL9 recruitment assay, HuH7; conditions: calculated mean from >3 independent exp.
Description: as §1, §2

COc1nn(C2CCN(C)CC2)cc1Nc1ncc(Cl)c(-n2ccc3c(C#N)cccc32)n1 [EEE17]
Gal9 response compared to reference ([1]; EEE 0.31 µM): 0.023
Gal9 response compared to reference ([1]; EEE 0.62 µM): 0.022
Gal9 response compared to reference ([1]; EEE 1.25 µM): 0.019
Gal9 response compared to reference ([1]; EEE 2.5 µM): 0.019
Gal9 response compared to reference ([1]; EEE 5 µM): 0.096
Gal9 response compared to reference ([1]; EEE 10 µM): 0.437
Gal9 response compared to reference ([2]; EEE 0.31 µM): 0.012
Gal9 response compared to reference ([2]; EEE 0.62 µM): 0.011
Gal9 response compared to reference ([2]; EEE 1.25 µM): 0.013
Gal9 response compared to reference ([2]; EEE 2.5 µM): 0.015
Gal9 response compared to reference ([2]; EEE 5 µM): 0.021
Gal9 response compared to reference ([2]; EEE 10 µM): 0.155
Gal9 response compared to reference ([3]; EEE 0.31 µM): 0.014
Gal9 response compared to reference ([3]; EEE 0.62 µM): 0.013
Gal9 response compared to reference ([3]; EEE 1.25 µM): 0.012
Gal9 response compared to reference ([3]; EEE 2.5 µM): 0.014
Gal9 response compared to reference ([3]; EEE 5 µM): 0.176
Gal9 response compared to reference ([3]; EEE 10 µM): 0.610
Gal9 response compared to reference ([4]; EEE 0.31 µM): 0.005
Gal9 response compared to reference ([4]; EEE 0.62 µM): 0.004
Gal9 response compared to reference ([4]; EEE 1.25 µM): 0.004
Gal9 response compared to reference ([4]; EEE 2.5 µM): 0.004
Gal9 response compared to reference ([4]; EEE 5 µM): 0.012
Gal9 response compared to reference ([4]; EEE 10 µM): 0.201
Gal9 response compared to reference ([5]; EEE 0.31 µM): 0.016
Gal9 response compared to reference ([5]; EEE 0.62 µM): 0.019
Gal9 response compared to reference ([5]; EEE 1.25 µM): 0.014
Gal9 response compared to reference ([5]; EEE 2.5 µM): 0.018
Gal9 response compared to reference ([5]; EEE 5 µM): 0.028
Gal9 response compared to reference ([5]; EEE 10 µM): 0.303
Gal9 response compared to reference ([6]; EEE 0.31 µM): 0.008
Gal9 response compared to reference ([6]; EEE 0.62 µM): 0.010
Gal9 response compared to reference ([6]; EEE 1.25 µM): 0.008
Gal9 response compared to reference ([6]; EEE 2.5 µM): 0.010
Gal9 response compared to reference ([6]; EEE 5 µM): 0.048
Gal9 response compared to reference ([6]; EEE 10 µM): 0.488
Luciferase expression compared to reference ([7]; EEE 2.5 - 3 µM): 0.752
Gal9 response compared to reference ([8]; EEE 0.31 µM): 0.009
Gal9 response compared to reference ([8]; EEE 0.62 µM): 0.008
Gal9 response compared to reference ([8]; EEE 1.25 µM): 0.008
Gal9 response compared to reference ([8]; EEE 2.5 µM): 0.011
Gal9 response compared to reference ([8]; EEE 5 µM): 0.010
Gal9 response compared to reference ([8]; EEE 10 µM): 0.030
Gal9 response compared to reference ([9]; EEE 0.31 µM): 0.007
Gal9 response compared to reference ([9]; EEE 0.62 µM): 0.007
Gal9 response compared to reference ([9]; EEE 1.25 µM): 0.010
Gal9 response compared to reference ([9]; EEE 2.5 µM): 0.017
Gal9 response compared to reference ([9]; EEE 5 µM): 0.021
Gal9 response compared to reference ([9]; EEE 10 µM): 0.132

CCOc1nn(C2CCN(C)CC2)cc1Nc1ncc(F)c(-n2ccc3c(C#N)cccc32)n1 [EEE13]
Gal9 response compared to reference ([1]; EEE 0.31 µM): 0.018
Gal9 response compared to reference ([1]; EEE 0.62 µM): 0.024
Gal9 response compared to reference ([1]; EEE 1.25 µM): 0.021
Gal9 response compared to reference ([1]; EEE 2.5 µM): 0.020
Gal9 response compared to reference ([1]; EEE 5 µM): 0.032
Gal9 response compared to reference ([1]; EEE 10 µM): 0.097
Gal9 response compared to reference ([2]; EEE 0.31 µM): 0.014
Gal9 response compared to reference ([2]; EEE 0.62 µM): 0.011
Gal9 response compared to reference ([2]; EEE 1.25 µM): 0.010
Gal9 response compared to reference ([2]; EEE 2.5 µM): 0.014
Gal9 response compared to reference ([2]; EEE 5 µM): 0.023
Gal9 response compared to reference ([2]; EEE 10 µM): 0.072
Gal9 response compared to reference ([3]; EEE 0.31 µM): 0.014
Gal9 response compared to reference ([3]; EEE 0.62 µM): 0.015
Gal9 response compared to reference ([3]; EEE 1.25 µM): 0.012
Gal9 response compared to reference ([3]; EEE 2.5 µM): 0.013
Gal9 response compared to reference ([3]; EEE 5 µM): 0.044
Gal9 response compared to reference ([3]; EEE 10 µM): 0.421
Gal9 response compared to reference ([4]; EEE 0.31 µM): 0.005
Gal9 response compared to reference ([4]; EEE 0.62 µM): 0.004
Gal9 response compared to reference ([4]; EEE 1.25 µM): 0.004
Gal9 response compared to reference ([4]; EEE 2.5 µM): 0.003
Gal9 response compared to reference ([4]; EEE 5 µM): 0.007
Gal9 response compared to reference ([4]; EEE 10 µM): 0.023
Gal9 response compared to reference ([5]; EEE 0.31 µM): 0.019
Gal9 response compared to reference ([5]; EEE 0.62 µM): 0.018
Gal9 response compared to reference ([5]; EEE 1.25 µM): 0.013
Gal9 response compared to reference ([5]; EEE 2.5 µM): 0.014
Gal9 response compared to reference ([5]; EEE 5 µM): 0.015
Gal9 response compared to reference ([5]; EEE 10 µM): 0.038
Gal9 response compared to reference ([6]; EEE 0.31 µM): 0.009
Gal9 response compared to reference ([6]; EEE 0.62 µM): 0.011
Gal9 response compared to reference ([6]; EEE 1.25 µM): 0.010
Gal9 response compared to reference ([6]; EEE 2.5 µM): 0.013
Gal9 response compared to reference ([6]; EEE 5 µM): 0.044
Gal9 response compared to reference ([6]; EEE 10 µM): 0.306
Luciferase expression compared to reference ([7]; EEE 5 µM): 1.314
Luciferase expression compared to reference ([7]; EEE 1-1.25 µM): 0.743
Luciferase expression compared to reference ([7]; EEE 2.5 - 3 µM): 0.692
Gal9 response compared to reference ([8]; EEE 0.31 µM): 0.008
Gal9 response compared to reference ([8]; EEE 0.62 µM): 0.007
Gal9 response compared to reference ([8]; EEE 1.25 µM): 0.008
Gal9 response compared to reference ([8]; EEE 2.5 µM): 0.009
Gal9 response compared to reference ([8]; EEE 5 µM): 0.006
Gal9 response compared to reference ([8]; EEE 10 µM): 0.007
Gal9 response compared to reference ([9]; EEE 0.31 µM): 0.010
Gal9 response compared to reference ([9]; EEE 0.62 µM): 0.007
Gal9 response compared to reference ([9]; EEE 1.25 µM): 0.011
Gal9 response compared to reference ([9]; EEE 2.5 µM): 0.015
Gal9 response compared to reference ([9]; EEE 5 µM): 0.012
Gal9 response compared to reference ([9]; EEE 10 µM): 0.046

Source: PMC11999280, “Design and screening of novel endosomal escape compounds that enhance functional delivery of oligonucleotides in vitro” (Molecular Therapy. Nucleic Acids, 2025)
